Results published in paper PMC12188386, “Selective CBP/EP300 Bromodomain Inhibitors: Novel Epigenetic Tools to Counter TNF-α-Driven Inflammation” (JACS Au, 2025).

Key:
CBP = CBP (Homo sapiens, UniProt Q92793); assay: commercial Bromoscan assay; assay type: binding
Experimental: was used as the calibration curve. To obtain saturated solutions of the compounds of interest, in duplicates 4.4 µL of a 10 or 5 mM stock in DMSO was added to 436 µL Buffer (PBS, pH = 7.4), to give a final concentration of 100 or 50 µM. Samples were incubated on a shaker (500 rpm) at 37°C for 90 minutes and then filtered (Millex-GV 13 mm, 0.22 µm). 304 µL of the filtrate was mixed with 76 µL of acetonitrile on a dilution plate, from which 350 µL was transferred to a UV-plate and UV-absorption was read using a SpectraMax M5 (Molecular devices). The absorbance was blank-corrected and compared to the calibration curve to […]
solubility. […]
lower solubility (2) compounds respectively in a 12.5 w/v% CAPTISOL® solution in water. […] Based on the known density of 12.5 % CAPTISOL® solution (d = 1.05755 g/mL at 25 °C), the precise weight of the resulting solution and so the required amount of water by weight was calculated. […] In duplicates, aliquots of the filtrates were taken and diluted with blank 12.5 % CAPTISOL® water solution in either a 1:14 (higher sol. compounds) or 1:7 (lower sol. compounds) ratio, 350 µL was transferred to a 96-Well Plate (Greiner, UV-star) then UV absorption (240-400 nm, 10 nm steps) was measured using a SpectraMax M5 (Molecular devices). […] The calculated concentrations are available in Table S4. […]
The bromodomain concentration in the eluates was measured by qPCR. […]

[1] = tested on: TNF-α-induced IL-8 secretion from THP-1 cells; assay: cytokine protein measurement (LEGENDPlex); assay type: cell-based, human; details: 10 ng/mL TNF-α, 1 μM compound
Experimental: For cytokine expression determination, 5x10^5 THP-1 cells were plated on 12 well plates the day prior to treatment with 10 ng/mL recombinant human TNF -α (aa 77-233) protein (R&D systems, 10291 -TA) and compounds at a final concentration of 0.1 % DMSO. In all cases, total […]
Cytokine protein measurements
THP-1 cells were plated and treated as for the quantitative RT -PCR, then the cell culture medium was harvested by pelleting the cells (300g, 3min) and taking the supernatant .
Cytokine protein concentrations were determined using the LEGENDPlexTM Human Inflammation Panel 1 (BioLegend) assay with 25 µL of culture medium following the manufacturer’s instructi ns. amp es were ana zed f w c t metr n an rtessa Biosciences), and data was analyzed using LEGENDPlex software (BioLegend).

HL-60(TB) = assay: NCI-60 one-dose screen; assay type: cell-based, human; details: 10 µM, 48 h, Leukemia
Experimental: compounds with known characteristics were included as controls. Quantification of test and control compounds was performed by LC-MS/MS using an 8-point calibration curve under Cyprotex standard analytical conditions. The initial concentration (C0) at time zero was determined from the dosing solution, and recovery was calculated based on concentrations […]
The apparent permeability coefficient (Papp) is calculated from the equation (where dQ/dt is the drug permeation rate across the cells, C0 is the concentration in the donor compartment at time zero, and A is the area of the cell monolayer):
Efflux ratio (ER) is calculated from mean A-B and B-A data: […]
Adapted from NCI-60 Screening Methodology, one-dose screen:20 Briefly, human tumor cell lines, grown in RPMI 1640 containing 5% FBS and 2 mM L-glutamine, were plated in 96 well plates at densities ranging from 5,000 to 40,000 cells/well 24 h prior to addition of test compounds (here 10 μM 2). […] After washing again, the plates were air dried and bound stain solubilized with 10 mM Trizma base before absorbance was […]
Percentage growth (%Growth) was calculated as follows:
when Ti ≥ Tz, %Growth = Ti − Tz x 100 where Ti = absorbance from compound treated cells, Tz = absorbance from untreated cells at time zero, and C = absorbance from control (DMSO) treated cells. […]

CBP, sequence (Q92793 1085-1192 limits assumed): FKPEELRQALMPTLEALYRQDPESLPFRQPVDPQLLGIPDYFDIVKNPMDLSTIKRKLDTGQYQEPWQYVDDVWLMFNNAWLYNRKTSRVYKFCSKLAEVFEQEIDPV

With `Cc1cc2c(NC(=O)c3cc(NC(=O)c4ccco4)cc(-c4ccn(C)n4)c3)cccc2nn1` [Compound 2] as the compound, how does the Kd (CBP) read?
Its Kd is 9 nM.

And the “TNF-α-induced IL-8 protein secretion” value [1]?
The value was “significantly reducing its TNF-α-induced secretion”.

And the “%Growth” value (HL-60(TB))?
The value was 25%.
